Test [1] concerns the target human CYP11B1 (Homo sapiens (Human), UniProt P15538). The experiment in a line: G-402 cellular enzyme assay, human CYP11B1 (cortisol release). In kind it is cell-based. To be noted: G-402 cells expressing human CYP11B1, 1 μM Deoxycortisol. The text has this: (§1) The expression plasmids contains the ORF for either human/cyno CYP11B1 or CYP11B2 under the control of a suitable promoter (CMV-promoter) and a suitable resistance marker (neomycin). Using standard techniques the expression plasmid is transfected into G-402 cells and these cells are then selected for expressing the given resistance markers. Individual cell-clones are then selected and assessed for displaying the desired enzymatic activity using 11-Deoxycorticosterone (Cyp 11B2) or 11-Deoxycortisol (Cyp 11B1) as a substrate.
(§2) G-402 cells expressing CYP11 constructs were established as described above and maintained in McCoy's 5a Medium Modified, ATCC Catalog No. 30-2007 containing 10% FCS and 400 μg/ml G418 (Geneticin) at 37° C. under an atmosphere of 5% CO2/95% air. […] For assaying enzymatic activity, cells were plated onto 96 well plates and incubated for 16 h. An aliquot of the supernatant is then transferred and analyzed for the concentration of the expected product (Aldosterone for CYP11B2; Cortisol for CYP11B1). The concentrations of these steroids can be determined using HTRF assays from CisBio analyzing either Aldosterone or Cortisol.
(§3) Inhibition of the release of produced steroids can be used as a measure of the respective enzyme inhibition by test compounds added during the cellular enzyme assay. The dose dependent inhibition of enzymatic activity by a compound is calculated by means of plotting added inhibitor concentrations (x-axes) vs. measured steroid/product level (y-axes). The inhibition is then calculated by fitting the following 4-parameter sigmoidal function (Morgan-Mercer-Flodin (MMF) model) to the raw data points using the least squares method:
(§4) [formula] wherein, A is the maximum y value, B is the EC50 factor determined using XLFit, C is the minimum y value and D is the slope value.
(§5) EC50 values for compounds claimed herein were tested with the G402-based assay system described. Cyp 11B2 enzyme activity was tested in presence of 1 μM Deoxycorticosterone and variable amounts of inhibitors; Cyp 11B1 enzyme activity was tested in presence of 1 μM Deoxycortisol and variable amounts of inhibitors.

Test [2] deals with CYP11B2 (Homo sapiens (Human), UniProt P19099). The experiment in a line: G-402 cellular enzyme assay, human CYP11B2 (aldosterone release). In kind it is cell-based. To be noted: G-402 cells expressing human CYP11B2, 1 μM Deoxycorticosterone.
Text: as §1, §2, §3, §4, §5

Chain of CYP11B2 (P19099 25-503): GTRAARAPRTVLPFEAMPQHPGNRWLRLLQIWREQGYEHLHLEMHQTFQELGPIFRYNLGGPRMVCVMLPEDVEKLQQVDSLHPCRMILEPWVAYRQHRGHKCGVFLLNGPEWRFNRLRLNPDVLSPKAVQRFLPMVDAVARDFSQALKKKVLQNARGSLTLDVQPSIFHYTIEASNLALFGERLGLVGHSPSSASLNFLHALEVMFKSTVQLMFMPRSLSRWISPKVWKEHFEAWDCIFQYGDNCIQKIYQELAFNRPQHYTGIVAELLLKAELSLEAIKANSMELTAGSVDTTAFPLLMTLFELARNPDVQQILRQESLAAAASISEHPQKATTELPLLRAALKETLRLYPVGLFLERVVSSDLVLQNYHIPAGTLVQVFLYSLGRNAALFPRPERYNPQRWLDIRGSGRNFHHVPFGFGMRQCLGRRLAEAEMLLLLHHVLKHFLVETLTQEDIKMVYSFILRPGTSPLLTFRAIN
Chain of human CYP11B1 (P15538 25-503): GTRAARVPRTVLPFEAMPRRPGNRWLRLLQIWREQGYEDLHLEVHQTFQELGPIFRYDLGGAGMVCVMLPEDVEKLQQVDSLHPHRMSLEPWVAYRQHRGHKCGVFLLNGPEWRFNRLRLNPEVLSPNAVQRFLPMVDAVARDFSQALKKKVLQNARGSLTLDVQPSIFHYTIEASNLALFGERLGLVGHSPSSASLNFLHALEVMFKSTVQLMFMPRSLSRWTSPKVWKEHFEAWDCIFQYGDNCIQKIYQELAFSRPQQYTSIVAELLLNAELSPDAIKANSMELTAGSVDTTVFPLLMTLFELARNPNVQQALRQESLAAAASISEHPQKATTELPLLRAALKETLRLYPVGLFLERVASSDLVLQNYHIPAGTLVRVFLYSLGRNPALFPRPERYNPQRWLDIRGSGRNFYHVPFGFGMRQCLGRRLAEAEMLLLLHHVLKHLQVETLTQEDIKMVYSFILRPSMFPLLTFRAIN

Consider `NC(=O)COC1CCc2c(-c3ccc(C(F)(F)F)cc3)cncc21` (racemic) [Example 102, (rac)-2-(4-(4-(Trifluoromethyl)phenyl)-6,7-dihydro-5H-cyclopenta[c]pyridin-7-yloxy)acetamide], for which the EC50 (in general, the concentration needed to bring the measured effect to its halfway point) worked out at 40.8 nM in test [1] and 1.1 nM in test [2].

On to `CC1(COC2CCc3c(-c4ccc(C(F)(F)F)cc4)cncc32)COC1` (racemic) [Example 103, (rac)-7-((3-Methyloxetan-3-yl)methoxy)-4-(4-(trifluoromethyl)phenyl)-6,7-dihydro-5H-cyclopenta[c]pyridine], for which the EC50 in test [1] was determined as 2.3 nM; in test [2] it was 0.2 nM.

On to `OC1CCCc2c(-c3ccc(C(F)(F)F)cc3)cncc21` (racemic) [Example 104, (rac)-4-(4-(Trifluoromethyl)phenyl)-5,6,7,8-tetrahydroisoquinolin-8-ol], for which the half-maximal effective concentration (EC50) was 710 nM in test [1] and 14.6 nM in test [2].

In the case of `CCC(=O)N[C@@H]1c2cncc(-c3ccc(C(F)(F)F)cc3)c2CC[C@H]1C` (single isomer, unassigned) [Example 67, N-[(7R,8S or 7S,8R)-7-Methyl-4-(4-trifluoromethyl-phenyl)-5,6,7,8-tetrahydro-isoquinolin-8-yl]-propionamide], the values for the concentration giving a half-maximal response (EC50) in test [1] and in test [2] were 8470 nM and 764 nM, respectively.

Consider `CCC(=O)N[C@@H]1c2cncc(-c3ccc(C(F)(F)F)cc3)c2CC[C@@H]1C` (single isomer, unassigned) [Example 68, N-[(7S,8S or 7R,8R)-7-Methyl-4-(4-trifluoromethyl-phenyl)-5,6,7,8-tetrahydro-isoquinolin-8-yl]-propionamide], for which the EC50 came to 10700 nM in test [1] and 658 nM in test [2].

In the case of `CCC(=O)N[C@H]1c2cncc(-c3ccc(C(F)(F)F)cc3)c2CC[C@@H]1C` (single isomer, unassigned) [Example 69, N-[(7S,8R or 7R,8S)-7-Methyl-4-(4-trifluoromethyl-phenyl)-5,6,7,8-tetrahydro-isoquinolin-8-yl]-propionamide], the concentration giving a half-maximal response (EC50) in test [1] was found to be 742 nM; in test [2], 11 nM.

Take `CCC(=O)N[C@H]1c2cncc(-c3ccc(C(F)(F)F)cc3)c2CC[C@H]1C` (single isomer, unassigned) [Example 70, N-[(7R,8R or 7S,8S)-7-Methyl-4-(4-trifluoromethyl-phenyl)-5,6,7,8-tetrahydro-isoquinolin-8-yl]-propionamide]: the concentration for a half-maximal effect (EC50) in test [1] was 3030 nM; in test [2] it was 42 nM.

As for `Cc1ccc(C2(O)CCCc3c(-c4ccc(C#N)cc4)cncc32)cc1C` (single isomer, unassigned; (+)) [Example 15, (+)-(S or R)-4-(8-(3,4-Dimethylphenyl)-8-hydroxy-5,6,7,8-tetrahydroisoquinolin-4-yl)benzonitrile], the 50% effective concentration (EC50) in test [1] is 21 nM; in test [2], 5 nM.

Take `CCC(=O)NC1CCc2c(-c3ccc(C#N)cc3)cncc21` (single isomer, unassigned; (+)) [Example 19, (+)-(R or S)—N-(4-(4-Cyanophenyl)-6,7-dihydro-5H-cyclopenta[c]pyridin-7-yl)propionamide]: the EC50 in test [1] is 174 nM; in test [2], 12 nM.

`CCC(=O)NC1CCCc2c(-c3ccc(C(F)(F)F)cc3)cncc21` (single isomer, unassigned; (+)) [Example 23, (+)-(R or S)—N-(4-(4-(Trifluoromethyl)phenyl)-5,6,7,8-tetrahydroisoquinolin-8-yl)propionamide]: the EC50 amounted to 3690 nM in test [1] and 31 nM in test [2].

On to `CCC(=O)NC1CCCc2c(-c3ccc(Cl)cc3)cncc21` (single isomer, unassigned; (+)) [Example 26, (+)-(R or S)—N-(4-(4-Chlorophenyl)-5,6,7,8-tetrahydroisoquinolin-8-yl)propionamide], for which the concentration for a half-maximal effect (EC50) in test [1] came out at 503 nM; in test [2], 17 nM.

Turning to `CCC(=O)NC1CCCc2c(-c3ccc(F)c(C)c3)cncc21` (single isomer, unassigned; (+)) [Example 29, (+)-(R or S)—N-(4-(4-fluoro-3-methylphenyl)-5,6,7,8-tetrahydroisoquinolin-8-yl)propionamide], the half-maximal effective concentration (EC50) in test [1] stood at 241 nM; in test [2], 4 nM.

As to `CCC(=O)NC1CCCc2c(-c3ccc(Cl)cc3F)cncc21` (single isomer, unassigned; (+)) [Example 32, (+)-(R or S)—N-(4-(4-Chloro-2-fluorophenyl)-5,6,7,8-tetrahydroisoquinolin-8-yl)propionamide], the values for the EC50 in test [1] and in test [2] were 617 nM and 19 nM, respectively.

Turning to `CCC(=O)NC1CCCc2c(-c3ccc(C(F)(F)F)cc3F)cncc21` (single isomer, unassigned; (+)) [Example 35, (+)-(R or S)—N-(4-(2-Fluoro-4-(trifluoromethyl)phenyl)-5,6,7,8-tetrahydroisoquinolin-8-yl)propionamide], the EC50 in test [1] is 6680 nM; in test [2], 71 nM.

As for `CCC(=O)NC1CCCc2c(-c3ccc(Cl)c(F)c3)cncc21` (single isomer, unassigned; (+)) [Example 38, (+)-(R or S)—N-(4-(4-Chloro-3-fluorophenyl)-5,6,7,8-tetrahydroisoquinolin-8-yl)propionamide], the figures for the concentration for a half-maximal effect (EC50) in test [1] and in test [2] were 214 nM and 7 nM, respectively.

As for `CCC(=O)NC1CCCc2c(-c3ccc(C(F)(F)F)c(F)c3)cncc21` (single isomer, unassigned; (+)) [Example 41, (+)-(R or S)—N-(4-(3-Fluoro-4-(trifluoromethyl)phenyl)-5,6,7,8-tetrahydroisoquinolin-8-yl)propionamide], the figures for the EC50 in test [1] and in test [2] were 1810 nM and 16 nM, respectively.

With `CCC(=O)NC1CCc2c(-c3ccc(C(F)(F)F)cc3)cncc21` (single isomer, unassigned; (+)) [Example 51, (+)-(R or S)—N-(4-(4-(Trifluoromethyl)phenyl)-6,7-dihydro-5H-cyclopenta[c]pyridin-7-yl)propionamide], the concentration for a half-maximal effect (EC50) in test [1] was 2260 nM; in test [2], 25 nM.

With `C[C@@H](O)C(=O)NC1CCc2c(-c3ccc(C(F)(F)F)cc3)cncc21` (single isomer, unassigned; (+)) [Example 54, (+)-(R)-2-Hydroxy-N—((R or S)-4-(4-(trifluoromethyl)phenyl)-6,7-dihydro-5H-cyclopenta[c]pyridin-7-yl)propanamide], the half-maximal effective concentration (EC50) was 3170 nM in test [1] and 89 nM in test [2].

`CCC(=O)NC1CCc2c(-c3ccc(Cl)c(F)c3)cncc21` (single isomer, unassigned; (+)) [Example 57, (+)-(R or S)—N-(4-(4-Chloro-3-fluorophenyl)-6,7-dihydro-5H-cyclopenta[c]pyridin-7-yl)propionamide]: the half-maximal effective concentration (EC50) in test [1] came to 103 nM; in test [2], 7 nM.

As to `CCC(=O)NC1CCc2c(-c3ccc(F)c(C)c3)cncc21` (single isomer, unassigned; (+)) [Example 60, (+)-(R or S)—N-(4-(4-Fluoro-3-methylphenyl)-6,7-dihydro-5H-cyclopenta[c]pyridin-7-yl)propionamide], the concentration for a half-maximal effect (EC50) in test [1] is 64 nM; in test [2], 2 nM.

In the case of `CCC(=O)NC1CCc2c(-c3ccc(C(F)(F)F)cc3F)cncc21` (single isomer, unassigned; (+)) [Example 63, (+)-(R or S)—N-(4-(2-Fluoro-4-(trifluoromethyl)phenyl)-6,7-dihydro-5H-cyclopenta[c]pyridin-7-yl)propionamide], the results for the EC50 in test [1] and in test [2] were 1720 nM and 30 nM, respectively.

As to `CCS(=O)(=O)NC1CCc2c(-c3ccc(C(F)(F)F)cc3)cncc21` (single isomer, unassigned; (+)) [Example 66, (+)-(R or S)—N-(4-(4-(Trifluoromethyl)phenyl)-6,7-dihydro-5H-cyclopenta[c]pyridin-7-yl)ethanesulfonamide], the EC50 in test [1] is 14200 nM; in test [2], 280 nM.

For the compound `CCS(=O)(=O)NC1CCc2c(-c3ccc(C(F)(F)F)c(F)c3)cncc21` (single isomer, unassigned; (+)) [Example 73, (+)-(R or S)—N-(4-(3-Fluoro-4-(trifluoromethyl)phenyl)-6,7-dihydro-5H-cyclopenta[c]pyridin-7-yl)ethanesulfonamide], the EC50 amounted to 1870 nM in test [1] and 44.4 nM in test [2].

On to `OC1CCCc2c(-c3ccc(C(F)(F)F)cc3)cncc21` (single isomer, unassigned; (+)) [Example 106, (+)-(R or S)-4-(4-(Trifluoromethyl)phenyl)-5,6,7,8-tetrahydroisoquinolin-8-ol], for which the 50% effective concentration (EC50) in test [1] is 159 nM; in test [2], 4.6 nM.

Source of the values: patent US9187429B2, “Phenyl-tetrahydroisoquinoline derivatives” (Hoffmann-La Roche Inc., priority 2012, dated 2015).
